A short description of data set [1]: Microsomal stability assay, human liver microsomes. Type of data set: in vitro ADME. The note with it: pH 7.4; human liver microsomes 0.5 mg/mL, 1 mM NADPH, 1 μM compound; read-out: Microsomal Stability t1/2 Human. As for the experimental part: (§1) The in vitro microsomal stability assay was conducted in triplicate in mouse and human liver microsomal systems. In a typical incubation, a compound (typically 1 μM final concentration) was spiked into the reaction mixture containing 0.5 mg/mL of liver microsomal protein and 1 mM of NADPH in 0.1 M potassium phosphate buffer (pH 7.4) at 37° C. At various time points, 1 volume of reaction aliquot was taken and quenched with 3 volumes of acetonitrile with an appropriate internal standard. The samples were then vortexed and centrifuged at 14,000 rpm for 5 min. The supernatants were collected and analyzed by LC-MS/MS to determine the in vitro metabolic half-life (t1/2) and intrinsic clearance (CLint). Verapamil was used as a positive control.
(§2) Quantification and analysis of compounds in biological samples were carried out on an AB Sciex QTrap 5500 mass spectrometer coupled with an Agilent 1260 Infinity HPLC. The chromatographic separation of compounds was achieved using a Phenomenex Kinetex C18 column (50×2.1 mm, 2.6 μm), and MS/MS analysis was conducted using an ESI ion source with MRM detection. The MS/MS detection parameters including declustering potential (DP), entrance potential (EP), collision energy (CE), and collision cell exit potential (CXP) were optimized for each compound.

In data set [2] the test system is MIA PaCa-2 cells. Nature of the data set: Cell viability assay (MTT) in MIA PaCa-2 cells. Type of data set: cell-based. The note with it: Homo sapiens, antiproliferative activity, 72 h. How it is done: MIA PaCa-2 cells (CRL-1420, ATCC) were maintained in DMEM media supplemented with 10% FBS, 2.5% HS, 1% GlutaMAX, 1% sodium pyruvate, 100 U/mL penicillin, and 100 μg/mL streptomycin. Cell culture media and additives were purchased from Gibco. Cells were plated in 96-well plates at |1−2.5|×10^4 cells per well in the DMEM growth media. One microliter of a 2-fold serially diluted compound solution in DMSO (Sigma) starting at 20 mM (100 μM final concentration) was added to each well. The final volume in each well was 200 μL, yielding a final DMSO concentration of 0.5%. Control wells contained 0.5% DMSO (100% viability) or 25% DMSO (background) and all reactions were done in triplicate. The plate was incubated for 72 h at 37° C. in a 5% CO2/95% air humidified atmosphere.
Measurement of cell viability was carried out using a modified method of Mosmann based on 3-(4,5-dimethylthiazol-2-yl)-2,5-diphenyltetrazolium bromide (MTT, Sigma). MTT solution was prepared fresh at 1 mg/mL in serum-free and phenol red-free RPMI 1640 media. After 200 μL of MTT solution was added to each well, the plate was incubated as described above for 3 h. The MTT solution was removed, and the formazan crystals were solubilized with 200 μL of isopropanol. The plate was read on a SpectraMax i3 spectrophotometer (Molecular Devices) at 570 nm for formazan and 650 nm for background subtraction. EC50 values were calculated by fitting the data in GraphPad Prism software. EC50 values were determined in triplicate.

Data set [3] can be described thus: Plasma stability assay, mouse plasma. It is filed as in vitro ADME. The settings on record: 37° C., 24 h. How it is done: (§3) The plasma stability assay was performed in triplicate by incubating a compound in normal mouse and human plasma at 37° C. At 0, 1, 3, 6, and 24 h, aliquots of the plasma mixture were taken and quenched with 3 volumes of acetonitrile containing an appropriate internal standard. The samples were then vortexed and centrifuged at 14,000 rpm for 5 min. The supernatants were collected and analyzed by LC-MS/MS to determine the remaining percentage at various time points.
as §2

A short description of data set [4]: Plasma stability assay, human plasma. It is filed as in vitro ADME. The settings on record: 37° C., 24 h. As for the experimental part:
as §3, §2

Data set [5] in a line: Microsomal stability assay, mouse liver microsomes. Type of data set: in vitro ADME. The note with it: pH 7.4; mouse liver microsomes 0.5 mg/mL, 1 mM NADPH, 1 μM compound; read-out: Microsomal Stability t1/2 Mouse. How it is done: as §1, §2
The subject of data set [6] is Panc-1 cells. Briefly: Cell viability assay (MTT) in Panc-1 cells. The settings on record: Homo sapiens, antiproliferative activity, 72 h. It is filed as cell-based. How it is done: Panc-1 cells are maintained in RPMI 1640 (Invitrogen 11875) media supplemented with 10% FBS, 1% Penicillin/Streptomycin and 1% Glutamax-1. Cells were plated in 96-well plates at 25×10^4 cells/ml. After 24 hours, compounds were added at 9, 3× dilutions in triplicate from 100 uM final concentration in the appropriate growth media. Plates were incubated for 72 hours at 37° C. in a 5% CO2/95% air humidified atmosphere after which time the media was removed and MTT was added in RPMI phenol red free media. The MTT was removed after 3 hours and formazan crystals were solubilized with 200 μL of isopropanol. Plates were read on a Molecular Devices SpectraMax i3 spectrophotometer at 570 nm for formazan and 690 nm for background subtraction. EC50 values were calculated by fitting the data in GraphPad Prism software.

`CNC(=O)c1cncc(Cn2nc(C)c(NC(=O)c3ccc(COc4ccc(C(F)(F)F)cc4)cc3)c2C)c1` [Compound E3a, 5-((3,5-Dimethyl-4-(4-((4-(trifluoromethyl)phenoxy)methyl)benzamido)-1H-pyrazol-1-yl)methyl)-N-methylnicotinamide]: the values for the half-life at 1 μM in data set [1] and in data set [5] were 1.37 h and 2.4 h, respectively. In data set [2], the midpoint of the response, the EC50, lay at 8.6 µM. Further, the “Plasma Stability (% remaining, 6 h/24 h) Mouse” value in data set [3] is reported as “—/100%”. Also, the “Plasma Stability (% remaining, 6 h/24 h) Human” value in data set [4] was “—/94%”.
The corresponding values for `CNC(=O)c1ccnc(Cn2nc(C)c(NC(=O)c3ccc(COc4ccc(C(F)(F)F)cc4C)cc3)c2C)c1` [Compound E4b, 2-((3,5-Dimethyl-4-(4-((2-methyl-4-(trifluoromethyl)phenoxy)methyl)benzamido)-1H-pyrazol-1-yl)methyl)-N-methylisonicotinamide] are 0.95 h, 2.1 h, 4.9 µM, “—/99%” and “—/98%”.
The corresponding values for `CNC(=O)c1ccnc(Cn2nc(C)c(NC(=O)c3ccc(COc4ccc(C(F)(F)F)cc4)cc3)c2C)c1` [Compound E4a, 2-((3,5-Dimethyl-4-(4-((4-(trifluoromethyl)phenoxy)methyl)benzamido)-1H-pyrazol-1-yl)methyl)-N-methylisonicotinamide] are 1.08 h, 2.52 h, 13 µM, “—/98%” and “—/97%”.
`CNC(=O)c1cccc(Cn2nc(C)c(NC(=O)c3ccc(COc4ccccc4C(F)(F)F)cc3)c2C)c1` [Compound D9a, 3-((3,5-Dimethyl-4-(4-((2-(trifluoromethyl)phenoxy)methyl)benzamido)-1H-pyrazol-1-yl)methyl)-N-methylbenzamide]: the EC50 in data set [2] is 10 µM; in data set [6], 0.44 µM.
The corresponding values for `CNC(=O)c1cccc(Cn2nc(C)c(NC(=O)c3ccc(C(=O)Nc4ccccc4)cc3)c2C)c1` [Compound C4, N^1-(3,5-Dimethyl-1-(3-(methylcarbamoyl)benzyl)-1H-pyrazol-4-yl)-N^4-phenylterephthalamide] are 69 µM and 51 µM.
The like results for `CNC(=O)c1cccc(Cn2nc(C)c(NC(=O)c3ccc(COc4cccc(F)c4)cc3)c2C)c1` [Compound D6b, 3-((4-(4-((3-Fluorophenoxy)methyl)benzamido)-3,5-dimethyl-1H-pyrazol-1-yl)methyl)-N-methylbenzamide] were, in that order, 7.7 µM and 0.21 µM.
Consider `Cc1nn(Cc2ccc([N+](=O)[O-])cc2)c(C)c1NC(=O)c1ccc(COc2ccccc2)cc1` [Compound A5a, N-(3,5-Dimethyl-1-(4-nitrobenzyl)-1H-pyrazol-4-yl)-4-(phenoxymethyl)benzamide], for which the EC50 was found to be 7.8 µM in data set [2] and 23 µM in data set [6].
The like results for `CNC(=O)c1cccc(Cn2nc(C)c(NC(=O)c3ccc(COc4ccccc4)cc3)c2C)c1` [Compound A3b, 3-((3,5-Dimethyl-4-(4-(phenoxymethyl)benzamido)-1H-pyrazol-1-yl)methyl)-N-methylbenzamide] were, in that order, 6.2 µM and 5.2 µM.
As for `CNC(=O)c1cccc(Cn2nc(C)c(NC(=O)c3ccc(COc4ccccc4F)cc3)c2C)c1` [Compound D6a, 3-((4-(4-((2-Fluorophenoxy)methyl)benzamido)-3,5-dimethyl-1H-pyrazol-1-yl)methyl)-N-methylbenzamide], the EC50 in data set [2] was found to be 5.6 µM; in data set [6], 3 µM.
The corresponding values for `CNC(=O)c1cccc(Cn2nc(C)c(NC(=O)c3ccc(COc4ccc(OC)cc4)cc3)c2C)c1` [Compound D4c, 3-((4-(4-((4-Methoxyphenoxy)methyl)benzamido)-3,5-dimethyl-1H-pyrazol-1-yl)methyl)-N-methylbenzamide] are 8 µM and 48 µM.
In the case of `CNC(=O)c1cccc(Cn2nc(C)c(NC(=O)c3ccc(COc4cccc(C)c4)cc3)c2C)c1` [Compound D3b, 3-((3,5-Dimethyl-4-(4-((m-tolyloxy)methyl)benzamido)-1H-pyrazol-1-yl)methyl)-N-methylbenzamide], the EC50 in data set [2] turned out to be 6.2 µM; in data set [6], 0.56 µM.
`CNC(=O)c1cccc(Cn2nc(C)c(NC(=O)c3ccc(COc4ccccc4C)cc3)c2C)c1` [Compound D3a, 3-((3,5-Dimethyl-4-(4-((o-tolyloxy)methyl)benzamido)-1H-pyrazol-1-yl)methyl)-N-methylbenzamide]: the EC50 came out at 2.1 µM in data set [2] and 0.61 µM in data set [6].
With `Cc1nn(Cc2cccc([N+](=O)[O-])c2)c(C)c1NC(=O)c1ccc(COc2ccccc2)cc1` [Compound A5b, N-(3,5-Dimethyl-1-(3-nitrobenzyl)-1H-pyrazol-4-yl)-4-(phenoxymethyl)benzamide], the EC50 in data set [2] was determined as 11 µM; in data set [6] it was 20 µM.
`CNC(=O)c1cccc(Cn2nc(C)c(NC(=O)c3ccc(COc4ccc(F)cc4)cc3)c2C)c1` [Compound D6c, 3-((4-(4-((4-Fluorophenoxy)methyl)benzamido)-3,5-dimethyl-1H-pyrazol-1-yl)methyl)-N-methylbenzamide]: the 50% effective concentration (EC50) turned out to be 3.1 µM in data set [2] and 6.9 µM in data set [6].
The corresponding values for `CNC(=O)c1cccc(Cn2nc(C)c(NC(=O)c3ccc(COc4ccc(C#N)cc4)cc3)c2C)c1` [Compound D7c, 3-((4-(4-((4-Cyanophenoxy)methyl)benzamido)-3,5-dimethyl-1H-pyrazol-1-yl)methyl)-N-methylbenzamide] are 5.6 µM and 22 µM.
Regarding `Cc1nn(Cc2cccc(N)c2)c(C)c1NC(=O)c1ccc(COc2ccccc2)cc1` [Compound A6b, N-(1-(3-Aminobenzyl)-3,5-dimethyl-1H-pyrazol-4-yl)-4-(phenoxymethyl)benzamide], the results for the EC50 in data set [2] and in data set [6] were 35 µM and 9.7 µM, respectively.
Turning to `CNC(=O)c1cccc(Cn2nc(C)c(NC(=O)c3ccc(COc4cccc(Cl)c4)cc3)c2C)c1` [Compound D5b, 3-((4-(4-((3-Chlorophenoxy)methyl)benzamido)-3,5-dimethyl-1H-pyrazol-1-yl)methyl)-N-methylbenzamide], the figures for the EC50 in data set [2] and in data set [6] were 5.9 µM and 0.038 µM, respectively.
With `CNC(=O)c1cccc(Cn2nc(C)c(NC(=O)c3ccc(COc4ccccc4C#N)cc3)c2C)c1` [Compound D7a, 3-((4-(4-((2-Cyanophenoxy)methyl)benzamido)-3,5-dimethyl-1H-pyrazol-1-yl)methyl)-N-methylbenzamide], the values for the half-maximal effective concentration (EC50) in data set [2] and in data set [6] were 12 µM and 8.5 µM, respectively.
For the compound `CCNC(=O)c1cccc(Cn2nc(C)c(NC(=O)c3ccc(COc4ccccc4)cc3)c2C)c1` [Compound A4b, 3-((3,5-Dimethyl-4-(4-(phenoxymethyl)benzamido)-1H-pyrazol-1-yl)methyl)-N-ethylbenzamide], the EC50 in data set [2] worked out at 11 µM; in data set [6], 1.6 µM.

Values taken from US10357477B2, “Anticancer compounds” (REGENTS OF THE UNIVERSITY OF MINNESOTA, priority 2016, dated 2019).
